These results are taken from paper PMC4830892, “A microarray-based approach to evaluate the functional significance of protein-binding motifs” (Analytical and Bioanalytical Chemistry, 2016).

Non-standard residues stand in square brackets, D forms with d. Residues, ends and D or L forms follow the SMILES beside them. pY = N[C@@H](Cc1ccc(OP(=O)(O)O)cc1)C(=O)O

The subject of assay [1] is α-phosphotyrosine antibody (α-pTyr 100). Description: Titration of α-pY antibody on peptide microarrays. Type of assay: binding. Particulars: for affinity of the α-pY antibody (in words): compared with the other pY peptides; for Kd: peptide microarray, α-pY antibody 0.06 to 6.66 nM, 3 h at 4 °C, indirect immunofluorescence (Alexa633), bimolecular binding isotherm (Eq. 1), average ± standard deviation, six independent experiments. The protocol: (§1) Peptides that correspond to known interaction motifs involved in the formation of protein complexes in T cell signalling were purchased from EMC microcollections (Tübingen, Germany). All peptides carried an extra cysteine residue and a free N-terminus for immobilisation on the microarray substrates and a C-terminal amidation (see Electronic Supplementary Material (ESM), Table S1).
(§2) For generation of microarrays, peptide stock solutions (3 mM) in DMF were diluted 30 times with phosphate buffer (100 mM, pH 8) supplemented with 0.006 % (v/v) Triton X-100. N-Hydroxysuccinimide-preactivated slides served as substrates for immobilisation (Nexterion Slide H, Schott Nexterion/Peq-Lab, Erlangen, Germany) using a Nano-Plotter NP2.0 (GeSIM, Großerkmannshof, Germany), which employs piezo-driven pipetting tips to dispense peptide solutions. Microarray slides comprised 16 subarrays of doublets of each peptide. For each peptide, a volume of 1.2 nl was dispensed at a centre-to-centre spacing of 500 μm. During printing, temperature was maintained at 15 °C and air humidity at 65 %.
(§3) Sixteen incubation chambers with identical subarrays consisting of peptides derived from binding motifs of signalling proteins (see ESM Table S1) were generated by attaching a clip-on frame to the microarray substrate (ProPlate Multiarray System, Grace Biolabs, Molecular Probes, Eugene, OR, USA). The typical incubation volume for the subarrays was 50 μl. Microarrays were either incubated with an α-pY antibody (α-pTyr 100, 9411, Cell Signalling, Frankfurt am Main, Germany) at the indicated concentrations or co-incubated with cell lysate at the indicated concentrations for 3 h at 4 °C. Additionally, in another set of experiments, recombinant GRB2-SH2 was incubated on microarrays alone or co-incubated with cell lysate employing an α-penta HIS antibody (34600, Qiagen, Hilden, Germany) for the detection of His-tagged GRB2-SH2.
(§4) After incubation, microarrays were washed three times with washing buffer (PBS, 0.05 % (w/v) BSA, 0.05 % (w/v) Tween-20). For the detection of signals, microarrays were incubated with a secondary α-mouse antibody conjugated with Alexa633 (A-21050, Invitrogen) at a concentration of 1 μg/ml for 15 min at RT followed by a last washing step with washing buffer. Microarrays were dried with nitrogen and scanned using a ProScanArray (PerkinElmer Life Sciences, Waltham, Massachusetts), and the data were analysed using ArrayPro Analyzer software (Media Cybernetics, Silver Spring, USA) as described before. Final data represented the mean signal intensities corrected for the median of a ring-shaped local background surrounding the respective peptide spot. Titrations with α-pY antibody and GRB2-SH2 were performed to calculate dissociation constants (see below).
The resulting titration curves were fitted with Origin (OriginLab Corporation, v.6.1057, Northampton, USA) using a binding isotherm for a bimolecular interaction (Eq. 1):1 Fabs=Fmaxprot/Kd+prot Fabs represents the intensity of a microarray spot after background correction and [prot] the concentration of the titrated binder. Kd and Fmax were obtained from the fits.
To render this approach quantitative, first the affinities of the α-pY antibody towards the phosphotyrosine motifs of the microarrays were determined. […] The titration curves were fitted with a binding isotherm for a bimolecular interaction (Eq. 1, Fig. 2a, Table 1). In general, a coefficient of determination (R^2) of 0.8 was used as a cutoff in order to score a peptide as a binder. […] Regarding the poly-proline motif (PP) containing peptides present on the microarray, only on the peptide GAB2-509 in five experiments, a titration curve with an R^2 > 0.8 could be generated.

Assay [2] relates to proteins in Jurkat cell lysate (total cellular proteome). The experiment in a line: Competition of α-pY antibody binding with Jurkat cell lysate on peptide microarrays. Particulars: from EC50 and Kd α-pY by Cheng-Prusoff equation (Eq. 4); ± standard deviation. The protocol:
as §1, §2
Jurkat T cell leukaemia cells were maintained in RPMI 1640 medium (PAN-Biotech, Aisenbach, Germany) supplemented with 10 % foetal calf serum at 37 °C in 5 % CO2. For the preparation of lysates, cells were resuspended in lysis buffer (1 % Triton X-100, 50 mM n-octyl-D-glucopyranoside (Fluka, Taufkirchen, Germany), 20 mM Tris, 1 mM EDTA, 150 mM NaCl, 1 mM Na3VO4, pH 7.5, and complete protease inhibitor cocktail (Roche Applied Science, Mannheim, Germany)). Incubation on ice for 1 h was followed by centrifugation at 20,000×g at 4 °C for 15 min to remove cell debris. Transmembrane proteins were extracted from lipid rafts by using N-octyl-D-glucopyranoside. Protein concentrations were measured by Bradford Assay.
as §3, §4
For determination of EC50 values for competition with cell lysate, curves were fitted according to2 y=y0+Ae^−x/t with y0 as the signal intensity of the α-pY antibody or the recombinant GRB2-SH2 domain without cell lysate, A the amplitude, x the protein concentration in lysate, and t the decay constant. […]

In assay [3] the test system is SH2 domain of GRB2 (GRB2-SH2). Particulars: cited from earlier work. From the text: In contrast, the data points for LATpY191 and SHP1pY564, and SigpY437, ZAPpY319 and CDζpY72/83 were above or below the linear correlation defined by the first four peptides. […] SigpY437, in contrast, is a poor binder for which already low concent ...

The Kd is the constant that tells how readily two partners part at equilibrium. Read a high Kd as lower affinity. On to `CC(C)C[C@H](NC(=O)[C@H](CC(N)=O)NC(=O)[C@H](CCC(=O)O)NC(=O)[C@H](Cc1ccc(OP(=O)(O)O)cc1)NC(=O)[C@@H](NC(=O)[C@H](CC(=O)O)NC(=O)[C@H](CCC(=O)O)NC(=O)[C@H](CCCCN)NC(=O)[C@H](Cc1c[nH]cn1)NC(=O)[C@H](CCCCN)NC(=O)[C@H](CO)NC(=O)[C@@H](N)CS)C(C)C)C(=O)N[C@@H](Cc1c[nH]cn1)C(=O)N[C@H](C(=O)N[C@@H](CCCCN)C(=O)N[C@@H](CC(N)=O)C(=O)N[C@@H](CCCCN)C(N)=O)[C@@H](C)O` [SHP1pY564] (H-CSKHKEDV[pY]ENLHTKNK-NH2), for which, in assay [1], the “affinity of the α-pY antibody (in words)” value was “relatively low affinity” and the Kd stood at 0.00089 ± 0.00057 µM. The compound also gave a Kd in assay [2] of 17 ± 10 µM. For the same compound, the “affinity for the SH2 domain of GRB2 (in words)” value in assay [3] (same as stated for LATpY191 (strong affinity for SH2 domain of GRB2), ref [27]) is recorded as “The same holds true”.
As for `CC[C@H](C)[C@H](NC(=O)[C@H](CCCNC(=N)N)NC(=O)[C@H](C)NC(=O)[C@@H]1CCCN1C(=O)[C@H](CCC(=O)O)NC(=O)[C@@H]1CCCN1C(=O)[C@@H](NC(=O)[C@H](Cc1ccc(OP(=O)(O)O)cc1)NC(=O)CNC(=O)[C@H](CC(=O)O)NC(=O)[C@H](CO)NC(=O)[C@H](CC(N)=O)NC(=O)[C@H](CC(C)C)NC(=O)[C@@H](NC(=O)[C@H](CC(=O)O)NC(=O)[C@@H](NC(=O)[C@@H](N)CS)[C@@H](C)CC)[C@@H](C)O)[C@@H](C)O)C(=O)N[C@H](C(N)=O)[C@@H](C)O` [ZAPpY296] (H-CIDTLNSDG[pY]TPEPARIT-NH2), in assay [1], the “affinity of the α-pY antibody (in words)” value is “relatively low affinity” and the Kd was 0.00132 ± 0.00059 µM. For the same compound, binding in assay [2] was characterised by a dissociation constant (Kd) of 27 ± 28 µM. For the same compound, the “binding to GRB2 / GRB2-SH2 (in words)” value in assay [3] (Kd values of GRB2-SH2 described in recently published manuscript, ref [14]) is listed as “good binder”.
